# From ChEMBL document CHEMBL1177663, “Synthesis and anti-HIV activity of 2-naphthyl substituted DAPY analogues as non-nucleoside reverse transcriptase inhibitors” (Bioorg Med Chem, 2010)
# Key:
# [1] = tested on: Human immunodeficiency virus 1; assay: Antiviral activity against HIV1 bearing reverse transcriptase K103N and Y181C double mutation infected in human MT4 cells assessed as inhibition of virus-induced cytopathic effect after 4 days by MTT assay; assay type: functional, organism-based; conditions: Human immunodeficiency virus 1, MT4, 96 h
# [2] = Cytotoxicity against human MT4 cells after 4 days by MTT assay; assay type: cell-based
# [3] = tested on: Human immunodeficiency virus 1; assay: Antiviral activity against wild type HIV1 3B infected in human MT4 cells assessed as inhibition of virus-induced cytopathic effect after 4 days by MTT assay; assay type: functional, organism-based; conditions: Human immunodeficiency virus 1, 3B, MT4, 96 h
# [4] = Selectivity index, ratio of CC50 for human MT4 cells to EC50 for wild type HIV1 3B; assay type: toxicity, cell-based; conditions: read-out: Ratio CC50/EC50
# [5] = biological target: Human immunodeficiency virus type 1 reverse transcriptase (Human immunodeficiency virus 1, UniProt Q72547); assay: Inhibition of HIV1 reverse transcriptase
SMILES,EC50 [1],CC50 at 96 h [2],EC50 [3],selectivity ratio [4],IC50 [5]
Cc1cc(Oc2ccc3cc(C#N)ccc3c2Br)nc(Nc2ccc(C#N)cc2)n1,0.22 µM,> 274 µM,0.007 µM,> 40100,–
Cc1cc(Oc2ccc3cc(C#N)ccc3c2)nc(Nc2ccc(C#N)cc2)n1,332 µM,> 332 µM,0.003 µM,> 96500,–
N#Cc1ccc(Nc2nccc(Oc3ccc4cc(C#N)ccc4c3)n2)cc1,6.3 µM,> 68.8 µM,0.003 µM,20500,8.72 µM
N#Cc1ccc(Nc2nccc(Oc3ccc4cc(C#N)ccc4c3Br)n2)cc1,0.24 µM,283 µM,0.002 µM,181000,3.01 µM
Cc1cnc(Nc2ccc(C#N)cc2)nc1Oc1ccc2cc(C#N)ccc2c1,332 µM,> 332 µM,0.007 µM,> 44900,–
N#Cc1ccc(Nc2nccc(Oc3cc4ccc(C#N)cc4cc3Br)n2)cc1,> 56.5 µM,> 56.5 µM,0.001 µM,50400,1.13 µM
COc1c(Oc2ccnc(Nc3ccc(C#N)cc3)n2)ccc2cc(C#N)ccc12,0.38 µM,> 211 µM,0.002 µM,≥ 134000,2.29 µM
COc1cc2cc(C#N)ccc2cc1Oc1ccnc(Nc2ccc(C#N)cc2)n1,319 µM,> 318 µM,0.002 µM,> 158000,1.32 µM
COc1cc2cc(C#N)ccc2c(OC)c1Oc1ccnc(Nc2ccc(C#N)cc2)n1,0.16 µM,> 118 µM,0.005 µM,≥ 25000,0.0945 µM
N#Cc1ccc(Nc2nccc(Oc3ccc4cc(C#N)ccc4c3Cl)n2)cc1,0.7 µM,269 µM,0.006 µM,48000,–
COc1cc2cc(C#N)ccc2c(Cl)c1Oc1ccnc(Nc2ccc(C#N)cc2)n1,0.15 µM,> 191 µM,0.007 µM,≥ 25700,–
Cc1cnc(Nc2ccc(C#N)cc2)nc1Oc1ccc2cc(C#N)ccc2c1Br,0.83 µM,> 274 µM,0.012 µM,> 23800,–
CC(C)Nc1cccnc1N1CCN(C(=O)c2cc3cc(NS(C)(=O)=O)ccc3[nH]2)CC1 [DELAVIRDINE],> 3.62 µM,> 3.62 µM,–,–,–
O=C1Nc2ccc(Cl)cc2[C@@](C#CC2CC2)(C(F)(F)F)O1 [EFAVIRENZ],0.56 µM,> 63.4 µM,–,–,–
Cc1ccnc2c1NC(=O)c1cccnc1N2C1CC1 [NEVIRAPINE],> 15 µM,> 15 µM,0.075 µM,–,–
